We go through three compounds from patent US7026122B2, “Methods of assaying for compounds that inhibit premature translation termination and nonsense-mediated RNA decay” (PTC Therapeutics, Inc., priority 1999, dated 2006).

Test [1] deals with premature translation termination (luciferase reporter with premature stop codon). Briefly: Suppression assay in cells transiently transfected with stop codon luciferase plasmids. The class given is cell-based. Particulars: cells transiently infected with pMLT49, pMLT54 or pMLT55h for 24 hours; 12 hour exposure; FIGS. 2A-C. On the procedure: Cells, transiently infected with the indicated plasmids for 24 hours, were exposed to the indicated concentration of G418 (panel A, pMLT49; panel B, pMLT54; panel C, pMLT55h). Luciferase activity was measured after a 12 hour exposure.

In test [2] the test system is premature translation termination and NMD (luciferase reporter with premature stop codon). Briefly: Cell-based assay, 293 cells stably transfected with pMLT55, luciferase activity. The settings on record: 12 hour exposure. On the procedure:
The indicated independent clones were exposed to the indicated concentrations of G418. Luciferase activity was measured after a 12 hour exposure.
The indicated cell numbers were plated per well of a 96 well plate. Cells were exposed to the indicated concentrations of G418. Luciferase activity was measured after a 12 hour exposure on a robotic 96 well plate reader. Gentamycin was also used to inhibit NMD and premature translation termination.
On day 1, clone 55–31, a 293 cell line stably transfected with pMLT 55 (see FIG. 1) was plated in 96 well plates in the morning in DMEM media with 10% fetal bovine serum. Approximately 80 plates are plated at 40,000 cells per well in 100 μL. The cells were incubated overnight at 37° C.
On day two, test compounds (1 μL of 1 mM stock solution in 100 μL DMSO; 10 μM final concentration) were added. G418 (1 mg/ml) was added to column 12 of each plate as a control. The plates were incubated at 37° C. for 12–16 hours.
On day three, luciferase substrate was added to the cells and the plates were read on a Torcon automated luciferase assay reader for 96 well plates (see, e.g., FIGS. 3–4). Luciferase substrate is commercially available, e.g., from Promega.

Test [3] deals with premature translation termination (stop codon-containing luciferase RNA). Briefly: Biochemical suppression assay using RRL (rabbit reticulocyte lysate) and luciferase RNA. The settings on record: WT or stop codon luciferase RNA, incubated 45 or 90 minutes, FIGS. 7A-B. On the procedure: In vitro translation assays were performed in the presence of RRL, luciferase RNA (panel A, WT; panel B, stop codon) and the indicated concentrations of gentamycin. Reactions were incubated 45 or 90 minutes before luciferase activity was determined. WT and stop codon containing RNA are schematically shown. The reactions were performed in either a 96 or 384 well format. In vitro synthesized reporter RNA (see constructs in FIG. 5) was added to 15 μL of fully supplemented rabbit reticulocyte lysate according to standard methodology (prepared by the method of Jackson & Hunt, Methods in Enzymology 96:50–75 (1983). 0.5 to 1 μg of in vitro transcribed RNA was used per reaction. The reaction was mixed with 15 μL of a 2% DMSO solution containing 20 μM of test compound. The reaction was incubated for 90 minutes at 30° C. in a humidified incubator. Luciferase substrate was added and luciferase activity was read on a Torcon automated reader (see FIGS. 6–7).

Test [4] relates to premature stop codons in the dystrophin gene. Particulars: mdx mouse, Barton-Davis et al. 1999; cited from earlier work.

Turning to `CN[C@@H]1[C@@H](O)[C@@H](O[C@@H]2[C@@H](O)[C@H](O[C@H]3O[C@H]([C@@H](C)O)[C@@H](O)[C@H](O)[C@H]3N)[C@@H](N)C[C@H]2N)OC[C@]1(C)O` [G418], in test [1], the “G418-mediated suppression (luciferase activity)” value is “not cell line specific”. In test [2] (clone #31, 96 well plate, FIG. 4), the “G418-mediated suppression (luciferase activity), high throughput format” value is reported as “suppression in a stably transfected 293 cell line (clone #31) in high throughput format”. Further, the “G418-mediated suppression (relative luciferase activity, fold activation)” value in test [2] (independent clones of 293 cells stably transfected with pMLT55, FIGS. 3A-B) is on record as “suppression in various clones of stably transfected 293 cells”. With gentamycin, in test [3], the “Suppression by gentamycin (luciferase activity)” value is reported as “time dependent”. As for gentamycin sulfate, the “Suppression of translational termination at premature stop codons” value in test [4] is “found to suppress translational termination at premature stop codons in the dystrophin gene”.
